Measurements from the NIST ThermoML archive (doi:10.1016/j.fluid.2010.06.019).

Conditions: Liquid, Ebulliometric method (Recirculating still)

CCCCCCCCCCCCCCO [1-tetradecanol]
Conditions	vapor or sublimation pressure [kPa]
479.42 K	8.319
487.56 K	11.05
494.5 K	13.89
500.44 K	16.78
506.63 K	20.26
513.01 K	24.53
513.07 K	24.53
519.11 K	29.35
519.18 K	29.35

CC(C)(C)CO [2,2-dimethyl-1-propanol]
Conditions	vapor or sublimation pressure [kPa]
345.9 K	20.26
350 K	24.53
353.97 K	29.35
357.84 K	34.76
361.57 K	40.7
365.36 K	47.56
371.31 K	60.19
377 K	74.65
383.15 K	93.23
384.84 K	98.94

CCCCCCCO [heptan-1-ol]
Conditions	vapor or sublimation pressure [kPa]
382.3 K	8.324
388.34 K	11.05
388.36 K	11.05
393.65 K	13.89
393.67 K	13.89
398 K	16.77
402.68 K	20.25
407.45 K	24.53
407.46 K	24.54
412.21 K	29.34
412.22 K	29.35
416.72 K	34.76
416.78 K	34.76
421.2 K	40.69
425.69 K	47.55
425.77 K	47.57
432.77 K	60.19
439.55 K	74.66
446.78 K	92.98
446.82 K	93.13
446.87 K	93.24
448.6 K	98.12
448.63 K	98.2
450.73 K	104.37
452.84 K	110.87
452.97 K	111.28

CCCCCCO [hexan-1-ol]
Conditions	vapor or sublimation pressure [kPa]
366.67 K	8.323
372.64 K	11.06
377.56 K	13.87
381.8 K	16.77
381.81 K	16.77
386.17 K	20.26
390.77 K	24.54
390.78 K	24.54
395.23 K	29.35
399.57 K	34.77
403.73 K	40.7
407.98 K	47.57
414.61 K	60.2
420.99 K	74.69
427.85 K	93.19
427.9 K	93.26
429.52 K	98.12
429.54 K	98.16
431.85 K	105.46
432.25 K	106.75
432.32 K	106.98

CCCCCCCCO [octan-1-ol]
Conditions	vapor or sublimation pressure [kPa]
397.32 K	8.355
403.71 K	11.1
409.14 K	13.95
413.79 K	16.83
418.61 K	20.33
418.62 K	20.33
418.63 K	20.33
423.7 K	24.62
428.65 K	29.45
433.49 K	34.89
438.12 K	40.83
438.14 K	40.83
442.88 K	47.73
450.34 K	60.37
457.52 K	74.88
465.25 K	93.42
465.29 K	93.54
